Reference: patent US20250186425A1, “PPARG INVERSE AGONISTS AND USES THEREOF” (Flare Therapeutics Inc., priority 2022, published 2025)

Columns and labels:
[1] = test system: HT1197 (RXRA S427F mutation) cells; assay: Bladder cancer pharmacodynamic assay, HT1197 cell assay (qPCR of PPARG target gene ANGPTL4); type: cell-based; details: Homo sapiens; for inhibition at 0.1 µM: 100 nM compound, 24 hours, relative to DMSO control; for EC50: 24 hours treatment, qPCR
Description: 5637 (PPARG amplified) and HT1197 (RXRA S427F mutation) cells were used for assessment of modulation of PPARG target genes using quantitative PCR. Cells were treated for 24 hours with PPARG inverse agonists prior to analysis of FABP4 (IDT, Cat: Hs.PT 58.20106818) and ANGPTL4 (IDT, Cat: Hs.PT 58.25480012) expression, with expression of the housekeeping gene TBP (IDT, Cat: Hs.PT 58v.39858774) used to normalize expression across samples. Quantitative PCR was performed using an ABI QuantStudio 7 Flex Reaction system. Data were analyzed and reported relative to DMSO control using the comparative Ct method […].

[2] = molecular target: T1, PPARG/RXRA LBD heterodimer (Homo sapiens (Human), UniProt P37231); assay: PPARG-NCOR1 recruitment assay (TR-FRET); type: biochemical; details: for EC50: TR-FRET, biotinylated NCOR1 ID2 peptide, 80 nM Rosiglitazone, 3 hours, read-out: PPARG-NCOR recruitment assay EC50; for % NCOR recruitment relative to T907: maximal extent, T0070907 defined as 100%, DMSO 0%
Description: Compound potency (EC50) and maximal extent of NCOR1 recruitment to PPARG were assessed a TR-FRET binding assay measuring association of a biotinylated NCOR1 ID2 peptide (Biotin-[…]-amide) to PPARG/RXRA LBD heterodimer. Specifically, a 20 microliters of TR-FRET master mix consisting of 2 nM WT PPARG LBD (e. coli expressed, His-TEV-Q203-Y477; Uniprot ID P37231-2), 2 nM WT RXRA LBD or mutant S427F RXRA LBD (e. coli expressed, Flag-TEV-E228-T462; […]. Mixtures were incubated for 3 hours and read in an EnVision plate reader (Perkin Elmer) with Ex/Em 615/665. To determine the potency (EC50) and extent of NCOR1 recruitment, TR-FRET ratios were normalized to the average ratio of DMSO control wells (0%) and to the average maximum ratio for positive control compound (T0070907 (2-chloro-5-nitro-N-4-pyridinyl-benzamide); defined as 100%) in CDD Vault and analyzed using the Levenberg-Marquardt algorithm.

[3] = molecular target: T1, PPARG/RXRA LBD heterodimer; assay: PPARG-MED1 blockade assay (TR-FRET); type: biochemical; details: for EC50: TR-FRET, biotinylated MED1 LxxLL peptide, 80 nM Rosiglitazone, 3 hours, IC50; for % MED1 blockade relative to GW9662: maximal extent, GW9662 defined as 100%, DMSO 0%
Description: Compound potency (IC50) and maximal extent of MED1 repulsion to PPARG were assessed a TR-FRET binding assay measuring association of a biotinylated MED1 LxxLL peptide (Biotin-[…]-amide) to PPARG/RXRA LBD heterodimer. Specifically, a 20 microliters of TR-FRET master mix consisting of 2 nM WT PPARG LBD (e. coli expressed, His-TEV-Q203-Y477; Uniprot ID P37231-2), 2 nM WT RXRA LBD (e. coli expressed, Flag-TEV-E228-T462; […]. Mixtures were incubated for 3 hours and read in an EnVision plate reader (Perkin Elmer) with Ex/Em 615/665. To determine the potency (IC50) and extent of MED1 repulsion, TR-FRET ratios were normalized to the average ratio of DMSO control wells (0%) and to the average minimum ratio for positive control compound (GW9662 (2-chloro-5-nitrobenzanilide); defined as 100%) in CDD Vault and analyzed using the Levenberg-Marquardt algorithm.

T1 sequence (P37231 whole entry, looked up, the tested form may be a part): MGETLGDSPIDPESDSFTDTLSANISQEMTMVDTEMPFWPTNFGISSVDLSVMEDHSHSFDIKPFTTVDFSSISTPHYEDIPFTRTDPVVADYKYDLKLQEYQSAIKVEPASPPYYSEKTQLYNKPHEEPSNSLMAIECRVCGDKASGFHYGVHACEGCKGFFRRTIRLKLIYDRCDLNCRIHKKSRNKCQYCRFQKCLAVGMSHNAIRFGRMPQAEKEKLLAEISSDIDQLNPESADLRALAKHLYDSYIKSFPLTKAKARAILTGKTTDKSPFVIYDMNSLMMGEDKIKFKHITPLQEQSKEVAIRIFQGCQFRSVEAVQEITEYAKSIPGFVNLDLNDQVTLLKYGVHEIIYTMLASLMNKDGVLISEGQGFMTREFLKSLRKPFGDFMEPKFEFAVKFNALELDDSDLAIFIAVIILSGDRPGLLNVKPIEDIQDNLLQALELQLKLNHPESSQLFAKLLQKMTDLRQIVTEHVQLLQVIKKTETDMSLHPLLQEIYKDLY
T1 sequence (P19793 whole entry partner, looked up, the tested form may be a part): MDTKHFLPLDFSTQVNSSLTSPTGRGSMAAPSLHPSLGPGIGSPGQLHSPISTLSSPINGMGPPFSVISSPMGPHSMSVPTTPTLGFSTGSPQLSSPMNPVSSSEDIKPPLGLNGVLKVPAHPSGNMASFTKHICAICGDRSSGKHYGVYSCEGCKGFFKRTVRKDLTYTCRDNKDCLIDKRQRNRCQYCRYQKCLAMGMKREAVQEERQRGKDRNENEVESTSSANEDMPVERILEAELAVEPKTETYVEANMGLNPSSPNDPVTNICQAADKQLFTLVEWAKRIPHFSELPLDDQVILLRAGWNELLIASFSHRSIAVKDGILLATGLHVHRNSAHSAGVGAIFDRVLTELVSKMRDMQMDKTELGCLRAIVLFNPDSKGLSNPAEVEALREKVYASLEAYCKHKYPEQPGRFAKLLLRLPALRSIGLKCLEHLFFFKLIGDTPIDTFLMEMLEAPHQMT

Q: How did the inhibition at 0.1 µM [1] turn out when `N#Cc1ccc(Cl)c(-c2cc(=O)c3c(OCc4ccc(Cl)cc4)cc(F)cc3[nH]2)c1` [Example 6, 4-Chloro-3-(5-((4-Chlorobenzyl)Oxy)-7-Fluoro-4-Oxo-1,4-Dihydroquinolin-2-Yl)Benzonitrile] was run?
A: 25%

Q: What about the EC50 [2] of the same molecule?
A: 0.1 to 1 µM

Q: And the “% NCOR recruitment relative to T907” value [2]?
A: A (A: >100% (>the control compound, T907))

Q: What about the EC50 [3] of the same molecule?
A: 0.1 to 1 µM

Q: And the “% MED1 blockade relative to GW9662” value [3]?
A: A (A: >100% (>the control compound, GW9662))

Q: How did the inhibition at 0.1 µM [1] turn out when `CS(=O)(=O)c1ccc(C#N)cc1-c1cc(=O)c2c(Oc3ccc(Cl)cc3)cc(F)cc2[nH]1` [Example 1, 3-(5-(4-Chlorophenoxy)-7-Fluoro-4-Oxo-1,4-Dihydroquinolin-2-Yl)-4-(Methylsulfonyl)Benzonitrile] was run?
A: 85%

Q: And the EC50 [1]?
A: 0.0008 µM

Q: What about the EC50 [2] of the same molecule?
A: 0.1 to 1 µM

Q: And the “% NCOR recruitment relative to T907” value [2]?
A: A (A: >100% (>the control compound, T907))

Q: And the EC50 [3]?
A: 0.1 to 1 µM

Q: What about the “% MED1 blockade relative to GW9662” value [3] of the same molecule?
A: A (A: >100% (>the control compound, GW9662))

Q: What does the source list for `Cn1cc(Oc2cc(Cl)cc3[nH]c(-c4cc(C#N)ccc4S(C)(=O)=O)cc(=O)c23)cn1` [Example 4, 3-(7-Chloro-5-((1-Methyl-1H-Pyrazol-4-Yl)Oxy)-4-Oxo-1,4-Dihydroquinolin-2-Yl)-4-(Methylsulfonyl)Benzonitrile]?
A: inhibition at 0.1 µM [1]: 86%; EC50 [1]: 0.00035 µM; EC50 [2]: 0.1 to 1 µM; % NCOR recruitment relative to T907 [2]: A (A: >100% (>the control compound, T907)); EC50 [3]: 0.1 to 1 µM; % MED1 blockade relative to GW9662 [3]: A (A: >100% (>the control compound, GW9662))

Q: Which results are given for `N#Cc1ccc(Cl)c(-c2cc(=O)c3c(Oc4ccc(Cl)cc4)cc(F)cc3[nH]2)c1` [Example 2, 4-Chloro-3-(5-(4-Chlorophenoxy)-7-Fluoro-4-Oxo-1,4-Dihydroquinolin-2-Yl)Benzonitrile]?
A: inhibition at 0.1 µM [1]: 91%; EC50 [2]: 0.1 to 1 µM; % NCOR recruitment relative to T907 [2]: A (A: >100% (>the control compound, T907)); EC50 [3]: 0.1 to 1 µM; % MED1 blockade relative to GW9662 [3]: B (B: <100% (<the control compound, GW9662))

Q: Which inhibition at 0.1 µM [1] does the source give for `N#Cc1ccc(Cl)c(-c2cc(=O)c3c(Oc4ccc(Cl)nc4)cc(F)cc3[nH]2)c1` [Example 5, 4-Chloro-3-(5-((6-Chloropyridin-3-Yl)Oxy)-7-Fluoro-4-Oxo-1,4-Dihydroquinolin-2-Yl)Benzonitrile] here?
A: 77%

Q: What about the EC50 [2] of the same molecule?
A: 0.1 to 1 µM

Q: And the “% NCOR recruitment relative to T907” value [2]?
A: A (A: >100% (>the control compound, T907))

Q: And the EC50 [3]?
A: 0.1 to 1 µM

Q: And the “% MED1 blockade relative to GW9662” value [3]?
A: A (A: >100% (>the control compound, GW9662))

Q: How did the inhibition at 0.1 µM [1] turn out when `CS(=O)(=O)c1ccc(C#N)cc1-c1cc(=O)c2c(Cc3ccc(Cl)cc3)cc(F)cc2[nH]1` [Example 7, 3-(5-(4-Chlorobenzyl)-7-Fluoro-4-Oxo-1,4-Dihydroquinolin-2-Yl)-4-(Methylsulfonyl)Benzonitrile] was run?
A: 90%

Q: What about the EC50 [2] of the same molecule?
A: 0.01 to 0.1 µM

Q: And the “% NCOR recruitment relative to T907” value [2]?
A: A (A: >100% (>the control compound, T907))

Q: What about the EC50 [3] of the same molecule?
A: 0.1 to 1 µM

Q: And the “% MED1 blockade relative to GW9662” value [3]?
A: A (A: >100% (>the control compound, GW9662))

Q: With `Cn1cc(Oc2cc(F)cc3[nH]c(-c4cc(C#N)ccc4S(C)(=O)=O)cc(=O)c23)cn1` [Example 3, 3-(7-Fluoro-5-((1-Methyl-1H-Pyrazol-4-Yl)Oxy)-4-Oxo-1,4-Dihydroquinolin-2-Yl)-4-(Methylsulfonyl)Benzonitrile] as the molecule, how does the inhibition at 0.1 µM [1] read?
A: 82%

Q: And the EC50 [2]?
A: 1 to 10 µM

Q: What about the “% NCOR recruitment relative to T907” value [2] of the same molecule?
A: A (A: >100% (>the control compound, T907))

Q: And the EC50 [3]?
A: 1 to 10 µM

Q: And the “% MED1 blockade relative to GW9662” value [3]?
A: A (A: >100% (>the control compound, GW9662))
